Series [1] deals with interaction between PD-1 and PD-L1 (Homo sapiens (Human), UniProt Q9NZQ7). Description: PD1-PDL1 HTRF binding activity test (Cisbio PD-1/PD-L1 binding assay kit). The procedure: I. PD1-PDL1 HTRF Binding Activity Test
The effect of compounds of the examples of the present invention on the interaction between PD-1 and PD-L1 was determined by the PD-1/PD-L1 binding assay kit from Cisbio (#64ICP01PEG or 64ICP01PEH). The detailed experimental process was as follows: • 1. Pre-diluted compound solution, 4 μL of Tag1-PD-L1 and 4 μL of Tag2-PD1 were added to each well of a 384-well plate; • 2. After the mixture was incubated at room temperature for 15 min, 5 μL of anti-Tag1-Eu3+ antibody and 5 μL of anti-Tag2-XL665 antibody were then added; • 3. After incubated for 2 hrs at room temperature or overnight at 4° C., plates were read on Envision of Pelkin Elmer; and readings at 665 nm and 620 nm were recorded, and the ratio of the two readings was taken as a reading for each well; • 4. The reading of each well after compound treatment was compared with the reading of DMSO treated wells to obtain the percent inhibition of the compound; • 5. IC50 values of compounds and positive compounds of the examples of the present invention were determined by non-linear regression analysis of percent inhibition at different compound concentrations. II. Jurkat Reporter Gene Cellular Assay
For orientation: In TR-FRET formats the signal depends on donor and acceptor labels being close together.

A short description of series [2]: Jurkat reporter gene cellular assay. The conditions noted are these: Homo sapiens; Jurkat/NF-κB-luc/PD1 + Raji-PD-L1 coculture, OKT3 1 μg/mL, 6 hrs, activation fold; read-out: Cell Activity EC50. It is filed as cell-based. In short, it runs like this: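 Jurkat cells stably expressing human PD-1 and NF-κB-luciferase co-cultured with PD-L1-expressing Raji cells (5×10^4 each/well) under OKT3 (1 μg/mL final) with compound. Raji cells preincubated 20 min; luminescence read 6 h after Jurkat addition. EC50 from non-linear regression of fold activation over DMSO.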
(In a reporter assay the amount or activity of a reporter protein is the signal.)

Series [3] in a line: Pharmacokinetic assay in mice. It is filed as in vivo. The conditions noted are these: male, mouse; ICR mice, PO 10 mg/kg, plasma, original compound detected. The procedure: III. Pharmacokinetic Assay in Mice
The purpose of this study was to study the pharmacokinetic behaviors of some compounds of the present invention, and administration routes were: per oral administration (PO) to ICR mice at a dose of 10 mg/kg.
The compounds used in this test came from the compounds of the specific examples of the present invention.
ICR mice, male, N=3, with the original source of Shanghai Sippr-BK Laboratory Animal Co. Ltd.
2.3 Preparation and Administration of Drug
The compounds were weighed, and dissolved in a solvent of 0.5% SDS+0.5% CMCNa. The mixture solutions were mixed well by shaking and ultrasonic treatment to obtain colorless clear solutions. The solutions were orally administered to nine mice after an overnight fast. The dosage of administration was 10 mg/kg.
1) With about 90 μL/time point, blood was drawn from the submaxillary vein, and heparin sodium was added for anticoagulation. The blood samples were placed onto the ice, and were centrifuged (centrifugation conditions: 8000 r/min, 6 min, 2-8° C.) within 1 hr to obtain plasmas.
2) The time points for blood sampling were at 0 hr, 0.25 hr, 0.5 hr, 1 hr, 2 hrs, 4 hrs, 6 hrs, 8 hrs and 24 hrs after administration. The samples were stored in a refrigerator at −20° C.
3) 40 μL of plasma sample was added to 160 μL of cold acetonitrile containing an internal standard, and the mixture solution was vortexed for 3 min and centrifuged at 11,000 r/min for 5 min.
4) 100 μL of supernate was taken and added to 100 μL of water, and 5 μL of the sample was taken and analyzed by LC/MS/MS.
Only the original compounds were analyzed for the compounds from the examples of the present invention and the reference compound from Example 158 of WO2020011209A1; and both the original compounds and possible products of ester hydrolysis, namely Example 217, were analyzed for the reference compound from Example 216 of WO2020011209A1.

Sequence of interaction between PD-1 and PD-L1 (Q9NZQ7 19-238): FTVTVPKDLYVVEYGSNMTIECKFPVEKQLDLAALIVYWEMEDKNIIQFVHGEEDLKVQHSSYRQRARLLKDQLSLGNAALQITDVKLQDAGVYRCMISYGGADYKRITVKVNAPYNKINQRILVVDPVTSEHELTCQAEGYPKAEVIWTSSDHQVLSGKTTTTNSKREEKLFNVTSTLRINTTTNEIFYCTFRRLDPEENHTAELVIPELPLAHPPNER

One may read the IC50 as the midpoint of a concentration-inhibition curve. A lower IC50 goes with greater potency. What is called EC50 is the concentration at which the effect is half-maximal. What is called AUC(0-t) is exposure summed from dosing to a finite time, without extrapolation to infinity. Read a high AUC(0-t) as more exposure. Usually Cmax stands for the peak of the concentration-time curve. One may read the MRT as the average time that molecules of a dose stay in the body. What is called Tmax is the time at which the peak concentration occurs. One may read the half-life as how long it takes for the measured level to halve. The low end stands for rapid decline, the high end for slow decline. Molecule `Cc1c(/C=C(\F)c2nc3c(n2C)CCN(C(C)C)C3)cccc1-c1cccc(NC(=O)c2nc3c(n2C)CCN(CCC24CCC(C(=O)O)(CC2)C4)C3)c1C` [Example 1, (Z)-4-(2-(2-((3′-(2-fluoro-2-(5-isopropyl-1-methyl-4,5,6,7-tetrahydro-1H-imidazo[4,5-c]pyridin-2-yl)vinyl)-2,2′-dimethyl-[1,1′-biphenyl]-3-yl)carbamoyl)-1-methyl-1,4,6,7-tetrahydro-5H-imidazo[4,5-c]pyridin-5-yl)ethyl)bicyclo[2.2.1]heptane-1-carboxylic acid] showed an IC50 in series [1] of 0.688 nM. Also, the EC50 in series [2] was 258 nM. Also, in series [3], the AUC(0-t) was found to be 2490 ng·h/mL, the Cmax came to 323 ng/mL, the MRT came to 8.3 h and the Tmax is 4 h. The molecule also had a half-life in series [3] of 5.2 h.
Take `COc1cc(/C(F)=C/c2cccc(-c3cccc(NC(=O)c4nc5c(n4C)CCN(CCC46CCC(C(=O)O)(CC4)C6)C5)c3Cl)c2Cl)ncc1CN1CCC(C)(O)C1` (stereo not shown) [Example 49, (Z)-4-(2-(2-((2,2′-dichloro-3′-(2-fluoro-2-(5-((3-hydroxy-3-methylpyrrolidin-1-yl)methyl)-4-methoxypyridin-2-yl)vinyl)-[1,1′-biphenyl]-3-yl)carbamoyl)-1-methyl-1,4,6,7-tetrahydro-5H-imidazo[4,5-c]pyridin-5-yl)ethyl)bicyclo[2.2.1]heptane-1-carboxylic acid]: the IC50 in series [1] is 0.232 nM. Also, the EC50 in series [2] turned out to be 46.2 nM. Further, in series [3], the AUC(0-t) amounted to 15100 ng·h/mL, the Cmax came out at 1010 ng/mL, the MRT was 7.4 h and the Tmax was 2 h. The molecule also had a half-life in series [3] of 4 h.
The molecule `COc1cc(/C(F)=C/c2cccc(-c3cccc(NC(=O)c4nc5c(n4C)CCN(CCC46CCC(C(=O)O)(CC4)C6)C5)c3Cl)c2Cl)ncc1CN1CCCC1` [Example 58, (Z)-4-(2-(2-((2,2′-dichloro-3′-(2-fluoro-2-(4-methoxy-5-(pyrrolidin-1-ylmethyl)pyridin-2-yl)vinyl)-[1,1′-biphenyl]-3-yl)carbamoyl)-1-methyl-1,4,6,7-tetrahydro-5H-imidazo[4,5-c]pyridin-5-yl)ethyl) bicyclo[2.2.1]heptane-1-carboxvlic acid] returned an IC50 in series [1] of 0.193 nM. The EC50 in series [2] is 44.1 nM. Also, in series [3], the AUC(0-t) came to 1950 ng·h/mL, the Cmax was found to be 173 ng/mL, the MRT is 9.6 h and the time of peak concentration (Tmax) worked out at 6 h. Besides, in series [3], the half-life is 5 h.
With `COc1cc(/C(F)=C/c2cccc(-c3cccc(NC(=O)c4nc5c(n4C)CCN(CCC46CCC(C(=O)O)(CC4)C6)C5)c3Cl)c2Cl)ncc1CN1CC[C@@H](C(=O)O)C1` [Example 73, (R,Z)-1-((6-(2-(3′-(5-(2-(4-carboxybicyclo[2.2.1]heptan-1-yl)ethyl)-1-methyl-4,5,6,7-tetrahydro-1H-imidazo[4,5-c]pyridine-2-carboxamido)-2,2′-dichloro-[1,1′-biphenyl]-3-yl)-1-fluorovinyl)-4-methoxypyridin-3-yl)methyl)pyrrolidine-3-carboxylic acid], the IC50 in series [1] worked out at 0.186 nM. Besides, the EC50 in series [2] is 50.6 nM. Besides, in series [3], the AUC(0-t) came out at 590 ng·h/mL, the highest concentration (Cmax) was determined as 442 ng/mL, the MRT came out at 2 h and the Tmax is 0.5 h. Besides, the half-life in series [3] is 1.1 h.

These data come from patent US12473282B2, “Biphenyl fluorine double bond derivative, preparation method therefor, and pharmaceutical application thereof” (Abbisko Therapeutics Co., Ltd., priority 2020, dated 2025).
